Results from ChEMBL document CHEMBL1201862, “PubChem BioAssay data set” (2004).
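Method: 48-hour compound exposure of cells in 96-well plates, five concentrations, linear interpolation of endpoints. The concentration for 50% growth inhibition is given as GI50.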 Activity calls are given as the source filed them. No stated cut-off is given here; in the data, active = GI50 up to about 1.1 µM and inactive = higher.

Legend:
Test in all cases: inhibition of tumour cell growth, NCI panel, 48 h
OVCAR-5 = tested on: OVCAR-5
HT-29 = tested on: HT-29
OVCAR-4 = tested on: OVCAR-4
CCRF-CEM = tested on: CCRF-CEM
NCI-H23 = tested on: NCI-H23
IGROV-1 = tested on: IGROV-1
MDA-MB-435 = tested on: MDA-MB-435
SR = tested on: SR
MDA-MB-231 = tested on: MDA-MB-231
Hs-578T = tested on: Hs-578T
M14 = tested on: M14
MOLT-4 = tested on: MOLT-4
NCI-H522 = tested on: NCI-H522
UO-31 = tested on: UO-31
HOP-92 = tested on: HOP-92
NCI/ADR-RES = tested on: NCI/ADR-RES
T47D = tested on: T47D
COLO 205 = tested on: COLO 205
TK-10 = tested on: TK-10
BT-549 = tested on: BT-549

SMILES | GI50 (OVCAR-5) | GI50 (HT-29) | GI50 (OVCAR-4) | GI50 (CCRF-CEM) | GI50 (NCI-H23) | GI50 (IGROV-1) | GI50 (MDA-MB-435) | GI50 (SR) | GI50 (MDA-MB-231) | GI50 (Hs-578T) | GI50 (M14) | GI50 (MOLT-4) | GI50 (NCI-H522) | GI50 (UO-31) | GI50 (HOP-92) | GI50 (NCI/ADR-RES) | GI50 (T47D) | GI50 (COLO 205) | GI50 (TK-10) | GI50 (BT-549)
Cc1nn2c(=O)c([N+](=O)[O-])c(/C=C/c3ccco3)nc2s1 | 73.1 µM (inactive) | 56.1 µM (inactive) | > 100 µM (inactive) | 31.7 µM (inactive) | 50.5 µM (inactive) | 51.8 µM (inactive) | 21.1 µM (inactive) | 28.2 µM (inactive) | 63.4 µM (inactive) | 27.8 µM (inactive) | 64.7 µM (inactive) | 31.7 µM (inactive) | 60.5 µM (inactive) | 58.7 µM (inactive) | 36.2 µM (inactive) | 46.9 µM (inactive) | 27.8 µM (inactive) | 61.4 µM (inactive) | > 100 µM (inactive) | 28.7 µM (inactive)
CN1CCc2cc(N)cc3c2C1Cc1ccc2c(c1-3)OCO2 (stereo not given) | 42.4 µM (inactive) | 30.7 µM (inactive) | 30 µM (inactive) | 1.97 µM (inactive) | 34 µM (inactive) | 20.5 µM (inactive) | 9.59 µM (inactive) | 11 µM (inactive) | 49.2 µM (inactive) | 28.2 µM (inactive) | 30.8 µM (inactive) | 1.46 µM (inactive) | 18.1 µM (inactive) | 35.2 µM (inactive) | 17.7 µM (inactive) | 24.3 µM (inactive) | 36.1 µM (inactive) | 30.1 µM (inactive) | 45.8 µM (inactive) | 43 µM (inactive)
C=CC[C@H]1[C@H](O[Si](C)(C)C(C)(C)C)C=CC(=O)[C@@H]1CC(=O)N(Cc1ccccc1)Cc1ccccc1 | 32.4 µM (inactive) | 6.35 µM (inactive) | 17.5 µM (inactive) | 7.85 µM (inactive) | 5.46 µM (inactive) | 20.8 µM (inactive) | 20.9 µM (inactive) | 9.29 µM (inactive) | 14.2 µM (inactive) | 6.27 µM (inactive) | 18.1 µM (inactive) | 9.93 µM (inactive) | 5.01 µM (inactive) | 11.7 µM (inactive) | 2.09 µM (inactive) | 10.8 µM (inactive) | 3.3 µM (inactive) | 12.9 µM (inactive) | 19.2 µM (inactive) | 16.9 µM (inactive)
O=NN(CCCl)C(=O)NC1CCC(=O)NC1=O (stereo not given) | 804 µM (inactive) | 807 µM (inactive) | 893 µM (inactive) | 75.5 µM (inactive) | 277 µM (inactive) | 365 µM (inactive) | 191 µM (inactive) | 25.4 µM (inactive) | 286 µM (inactive) | 348 µM (inactive) | 356 µM (inactive) | 49.2 µM (inactive) | 225 µM (inactive) | 676 µM (inactive) | 143 µM (inactive) | 193 µM (inactive) | 384 µM (inactive) | 267 µM (inactive) | 379 µM (inactive) | 251 µM (inactive)
O=C(NCCSSCCNC(=O)/C(Cc1ccc(O)c(Br)c1)=N/O)/C(Cc1ccc(O)c(Br)c1)=N/O [PSAMMAPLIN A] | 2.21 µM (inactive) | 1.35 µM (inactive) | 3.1 µM (inactive) | 0.377 µM (active) | 3.2 µM (inactive) | 1.17 µM (inactive) | 1.51 µM (inactive) | 0.38 µM (active) | 1.78 µM (inactive) | 1.77 µM (inactive) | 1.32 µM (inactive) | 0.402 µM (active) | 0.682 µM (active) | 1.74 µM (inactive) | 4.01 µM (inactive) | 1.29 µM (inactive) | 3.71 µM (inactive) | 1.64 µM (inactive) | 2.92 µM (inactive) | 6.21 µM (inactive)
Cc1cc(N(CCC#N)CCC#N)ccc1C(=N/NC(=O)c1cc(Cl)ccc1O)/N=N/c1cccc(Cl)c1 | 41.6 µM (inactive) | 16.1 µM (inactive) | 8.85 µM (inactive) | 4.41 µM (inactive) | 13.7 µM (inactive) | 1.4 µM (inactive) | 27.3 µM (inactive) | 6.04 µM (inactive) | 15.7 µM (inactive) | 39.1 µM (inactive) | 15.5 µM (inactive) | 4.81 µM (inactive) | 13.5 µM (inactive) | 18.9 µM (inactive) | 11.8 µM (inactive) | 16.3 µM (inactive) | 15.4 µM (inactive) | 5.96 µM (inactive) | 16.5 µM (inactive) | 14.8 µM (inactive)
CCOc1cc(C2CC(c3ccc(NS(=O)(=O)c4cc([N+](=O)[O-])ccc4C)cc3)=NN2c2ccc([N+](=O)[O-])cc2[N+](=O)[O-])ccc1O (stereo not given) | 23.4 µM (inactive) | 41.6 µM (inactive) | 3.3 µM (inactive) | 43.7 µM (inactive) | 16.7 µM (inactive) | 12.5 µM (inactive) | 11.6 µM (inactive) | 28.5 µM (inactive) | 6.3 µM (inactive) | 12.9 µM (inactive) | 12.3 µM (inactive) | 23.3 µM (inactive) | 10.4 µM (inactive) | 14.6 µM (inactive) | 10.4 µM (inactive) | 8.04 µM (inactive) | 9.68 µM (inactive) | 17.7 µM (inactive) | 15.7 µM (inactive) | 18 µM (inactive)
COC1C(C)OC(OC2CC(C)(O)Cc3cc4c(c(O)c32)C(=O)c2c(O)cc3c(c2C4=O)OC2OC3(C)C(O)C(N(C)C)C2O)C(OC)C1(C)OC (stereo not given) | 0.0628 µM (active) | 0.0243 µM (active) | 0.19 µM (active) | 0.00475 µM (active) | 0.00496 µM (active) | 0.0197 µM (active) | 0.00102 µM (active) | 0.00385 µM (active) | 0.00129 µM (active) | 5.79e-05 µM (active) | 0.00479 µM (active) | 0.00469 µM (active) | 0.00447 µM (active) | 0.411 µM (active) | 0.0333 µM (active) | 2.21 µM (inactive) | 2.9e-05 µM (active) | 0.0179 µM (active) | 0.00527 µM (active) | 0.000257 µM (active)
O=C1c2cccnc2S(=O)(=O)N1c1ccc([N+](=O)[O-])cc1 | > 100 µM (inactive) | > 100 µM (inactive) | > 100 µM (inactive) | 68.5 µM (inactive) | > 100 µM (inactive) | > 100 µM (inactive) | > 100 µM (inactive) | 29.9 µM (inactive) | > 100 µM (inactive) | 64 µM (inactive) | > 100 µM (inactive) | > 100 µM (inactive) | 24.9 µM (inactive) | > 100 µM (inactive) | > 100 µM (inactive) | > 100 µM (inactive) | > 100 µM (inactive) | > 100 µM (inactive) | > 100 µM (inactive) | > 100 µM (inactive)
c1ccc(CC2COC(c3cccs3)=N2)cc1 (stereo not given) | > 100 µM (inactive) | > 100 µM (inactive) | > 100 µM (inactive) | 38.1 µM (inactive) | > 79.8 µM (inactive) | > 100 µM (inactive) | > 100 µM (inactive) | 46.7 µM (inactive) | > 72.6 µM (inactive) | 49.5 µM (inactive) | > 100 µM (inactive) | 47.8 µM (inactive) | > 84.7 µM (inactive) | 64.1 µM (inactive) | 21.4 µM (inactive) | 48.5 µM (inactive) | 26 µM (inactive) | > 100 µM (inactive) | > 90.2 µM (inactive) | 54.8 µM (inactive)
